Data: the NIST ThermoML archive (doi:10.1007/s10765-007-0182-2)
± gives the expanded uncertainty stated by the source.

Settings: 101.33 kPa, Liquid, hot wire

[Pb] [lead]
thermal conductivity (620.3 K): 16.2 ± 1 W/m/K | thermal conductivity (678.1 K): 17 ± 1.1 W/m/K | thermal conductivity (729.5 K): 17.6 ± 1.1 W/m/K
